Results taken from publication PMC12693182, “Synthesis and QSAR Studies of Claramine Derivatives, a New Class of Broad-Spectrum Antimicrobial Agents” (Molecules, 2025).
Converted amounts (≈) assume the structure as drawn.

Experiments:
S. aureus 340 = assay: MIC, broth microdilution; type: cell-based, Staphylococcus aureus; details: Staphylococcus aureus, 340, 24 h
Description: (§1) Antimicrobial activity of the compounds was studied by determination of minimal inhibitory concentrations (MIC) according to the NCCLS guidelines M7-A2 using the microbroth dilution methods. The bacteria strains were grown on trypticase soy agar (Becton Dickinson) at 37 °C for 24 h. Inocula were prepared in TCE (tryptone 0.1%, […], wt/vol) by ajusting the turbidity at 623 nm to obtain 1–3 10^5 CFU/mL.
(§2) Antimicrobial activities of the compounds were determined by using a broth microdilution method performed in sterile 96-well microplates. All compounds were solubilized in water at a concentration of 10 mM and were transferred to each microplate well in order to obtain a two-fold serial dilution in 100 µL of broth and 100 µL of inoculum containing 2–6 10^5 CFU of each bacterium were added to each well. Some wells were reserved for positive controls and inoculum viability.

P. aeruginosa 1051575 = assay: MIC, broth microdilution; type: cell-based, Pseudomonas aeruginosa; details: Pseudomonas aeruginosa, 1051575, 24 h, 24 h
Description: as §1, §2

[1] = tested on: Chinese hamster Ovary cells (CHO-K1); assay: Cytotoxicity assay (WST-1 / Neutral Red); type: cell-based; details: 24-h incubation; for IC50: Cricetulus griseus, 24 h
Description: The cytotoxic activities of compounds were assessed on Chinese hamster Ovary cells (CHO-K1) provided from ATCC-LGC Standards Sarl (Molsheim, France). Cells were maintained in Mc Coy’s 5A (CHO) medium supplemented with 10% bovine calf serum, 2 mM glutamine, and 100 U mL^−1/10 µg mL^−1 penicillin/streptomycin mixtures. For the cytotoxicity experiments, they were seeded in 96-well plates and incubated at 37 °C in humidified atmosphere containing 5% CO2 overnight, then concentrations of compounds were incorporated in triplicate cultures. After a 24-h incubation period at 37 °C, cells were submitted to three successive washes in phosphate buffer saline (PBS) and cell viability was evaluated by two different vital dyes: • i. A first set of cell cultures was incubated in PBS containing 10% WST-1 for 30 min at 37 °C, 5% CO2. Cell viability was evaluated by the assessment of WST-1 absorbance at 450 nm in a microplate spectrophotometer. • ii. A second set of cell cultures was placed into Neutral Red medium (50 μg mL^−1 Neutral Red in complete medium) and incubated for 3 h at 37 °C, 5% CO2. Then the Neutral Red medium was removed and the distaining solution (50% ethanol, 1% acetic acid, 49% distilled water; 50 µL per well) was added into the wells. The plates were shaken for 15–20 min at room temperature in the dark. Cell viability was evaluated by the assessment of absorbance at 540 nm in a microplate spectrophotometer.
Results were expressed as percentages of cell viability about the control (culture medium-only), which corresponded to 100% cell viability. Dose-response curves were calculated by non-linear regression analysis with TableCurve 2D software (V 5.0.1) (Systat Software Inc., San Jose, CA, USA). The Inhibitory Concentration 50% (IC50) was defined as the concentration of compounds that induced a 50% decrease of viable cells.

S. aureus ATCC 25923 = assay: MIC, broth microdilution; type: cell-based, Staphylococcus aureus; details: Staphylococcus aureus, ATCC25923, 24 h, ATCC strain
Description: as §1, §2

P. aeruginosa ATCC 27853 = assay: MIC, broth microdilution; type: cell-based, Pseudomonas aeruginosa; details: Pseudomonas aeruginosa, ATCC27853, 24 h, ATCC strain
Description: as §1, §2

E. faecalis ATCC29212 = assay: MIC, broth microdilution; type: cell-based, Enterococccus faecalis; details: Enterococcus faecalis, ATCC29212, 24 h, ATCC strain, read-out: MIC E. faecalis 29212
Description: as §1, §2

E. coli 1956 = assay: MIC, broth microdilution; type: cell-based, Escherichia coli; details: Escherichia coli, 1956, 24 h
Description: as §1, §2

E. coli ATCC 25922 = assay: MIC, broth microdilution; type: cell-based, Escherichia coli; details: Escherichia coli, ATCC25922, 24 h, ATCC strain
Description: as §1, §2

S. intermedius 1051997 = assay: MIC, broth microdilution; type: cell-based, Staphylococcus intermedius; details: Staphylococcus intermedius, 1051997, 24 h, 24 h
Description: as §1, §2

Row | SMILES | MIC (S. aureus 340) [µg/mL] | MIC (P. aeruginosa 1051575) [µg/mL] | IC50 [1] [µg/mL] | other results
1 | CC(C)OC(=O)CCC(C)C1CCC2C3CCC4CC(NCCCNCCCN)CCC4(C)C3CC(O)C12C (stereo not shown) [Claramine A04] | 3 (≈ 5.48 µM) | 14 (≈ 25.6 µM) | 57 (≈ 104 µM) | 
2 | CCOC(=O)CCC(C)C1CCC2C3CCC4CC(NCCCNCCCCNCCCN)CCC4(C)C3CC(O)C12C (stereo not shown) [Claramine A20] |  |  | 25 (≈ 41.3 µM) | 
3 | CCCCOC(=O)CCC(C)C1CCC2C3CCC4CC(NCCCNCCCCNCCCN)CCC4(C)C3CC(O)C12C (stereo not shown) [Claramine A21] |  |  | 4 (≈ 6.32 µM) | 
4 | CC(CCC(=O)OC(C)(C)C)C1CCC2C3CCC4CC(NCCCNCCCCNCCCN)CCC4(C)C3CC(O)C12C (stereo not shown) [Claramine A22] | < 4 |  | > 35 | IC50 CHO [1]: 38 µg/mL (≈ 60 µM)
5 | CC(CCC(=O)OCC(F)(F)F)C1CCC2C3CCC4CC(NCCCNCCCCNCCCN)CCC4(C)C3CC(O)C12C (stereo not shown) [Claramine A24] |  |  | 76 (≈ 115 µM) | 
6 | CC(CCC(=O)OC(C(F)(F)F)C(F)(F)F)C1CCC2C3CCC4CC(NCCCNCCCCNCCCN)CCC4(C)C3CC(O)C12C (stereo not shown) [Claramine A25] |  |  | 4 (≈ 5.5 µM) | 
7 | CC(C)OC(=O)CCC(C)C1CCC2C3CCC4CC(NCCCN5CCN(CCCN)CC5)CCC4(C)C3CC(O)C12C (stereo not shown) [Claramine A26] | 62 (≈ 100 µM) | 62 (≈ 100 µM) | 160 (≈ 259 µM) | 
8 | CC(C)OC(=O)CCC(C)C1CCC2C3CCC4CC(NCCN(CCN)CCN)CCC4(C)C3CC(O)C12C (stereo not shown) [Claramine A29] | 14 (≈ 24.9 µM) | 56 (≈ 99.5 µM) | 141 (≈ 250 µM) | 
9 | COC(=O)CCC(C)C1CCC2C3C(O)CC4CC(NCCCNCCCN)CCC4(C)C3CC(O)C12C (stereo not shown) [Claramine B02] | 7 (≈ 13.1 µM) | 13 (≈ 24.3 µM) | 27 (≈ 50.4 µM) | 
10 | CC(C)OC(=O)CCC(C)C1CCC2C3C(O)CC4CC(NCCCNCCCCNCCCN)CCC4(C)C3CC(O)C12C (stereo not shown) [Claramine B12] | 8 (≈ 12.6 µM) | 8 (≈ 12.6 µM) | 48 (≈ 75.6 µM) | MIC (S. aureus ATCC 25923): 8 µg/mL (≈ 12.6 µM); MIC (P. aeruginosa ATCC 27853): 16 µg/mL (≈ 25.2 µM); MIC (E. faecalis ATCC29212): 32 µg/mL (≈ 50.4 µM); MIC (E. coli 1956): 62 µg/mL (≈ 97.6 µM); MIC (E. coli ATCC 25922): 4 µg/mL (≈ 6.3 µM); MIC (S. intermedius 1051997): 4 µg/mL (≈ 6.3 µM)
11 | CC(C)OC(=O)CCC(C)C1CCC2C3C(O)CC4CC(NCCCNCCCCN)CCC4(C)C3CC(O)C12C (stereo not shown) [Claramine B14] | 14 (≈ 24.2 µM) | 7 (≈ 12.1 µM) | 67 (≈ 116 µM) | MIC (S. aureus ATCC 25923): 7 µg/mL (≈ 12.1 µM); MIC (P. aeruginosa ATCC 27853): 15 µg/mL (≈ 26 µM); MIC (E. faecalis ATCC29212): 30 µg/mL (≈ 51.9 µM); MIC (E. coli 1956): 30 µg/mL (≈ 51.9 µM); MIC (E. coli ATCC 25922): 4 µg/mL (≈ 6.92 µM); MIC (S. intermedius 1051997): 4 µg/mL (≈ 6.92 µM)
12 | CC(C)OC(=O)CCC(C)C1CCC2C3C(O)CC4CC(NCCCNCCCN)CCC4(C)C3CC(O)C12C (stereo not shown) [Claramine B15] | 14 (≈ 24.8 µM) | 28 (≈ 49.7 µM) | 113 (≈ 200 µM) | 
13 | CC(C)OC(=O)CCC(C)C1CCC2C3C(O)CC4CC(NCCCN5CCN(CCCN)CC5)CCC4(C)C3CC(O)C12C (stereo not shown) [Claramine B16] | 16 (≈ 25.3 µM) | 16 (≈ 25.3 µM) | 260 (≈ 411 µM) | 
